# From ChEMBL document CHEMBL1138663, “Synthesis and aromatase inhibitory activity of novel pyridine-containing isoflavones” (J Med Chem, 2004)
# Biological target: T1, Aromatase (Homo sapiens, UniProt P11511)
# T1 sequence (P11511 whole entry): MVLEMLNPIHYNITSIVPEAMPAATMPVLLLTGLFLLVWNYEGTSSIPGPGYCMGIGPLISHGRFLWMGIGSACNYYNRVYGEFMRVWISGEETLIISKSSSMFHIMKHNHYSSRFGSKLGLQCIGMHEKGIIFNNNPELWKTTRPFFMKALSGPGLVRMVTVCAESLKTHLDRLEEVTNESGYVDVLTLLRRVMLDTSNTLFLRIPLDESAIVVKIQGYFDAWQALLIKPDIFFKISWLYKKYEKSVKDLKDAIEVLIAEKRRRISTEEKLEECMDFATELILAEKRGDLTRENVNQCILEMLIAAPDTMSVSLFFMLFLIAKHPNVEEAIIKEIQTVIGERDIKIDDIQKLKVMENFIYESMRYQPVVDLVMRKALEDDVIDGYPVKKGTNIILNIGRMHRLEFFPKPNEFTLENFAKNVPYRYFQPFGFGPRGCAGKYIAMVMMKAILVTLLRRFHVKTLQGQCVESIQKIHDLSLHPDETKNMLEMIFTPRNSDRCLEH
smiles,measurement,value
O=c1c(-c2ccc(O)cc2)coc2cc(O)cc(O)c12 [GENISTEIN],Ki,123 µM
